Like-named read-outs stand apart in the source and are kept apart here.
Experiments:
[1] = system: Human uterus cancer-derived cells HeLa S3; experiment: Growth prevention against cancer cells (72 h contact, Methylene Blue staining); format: cell-based; conditions: HeLa S3, 72 hours contact, 37° C., read-out: 50% Inhibitory Concentration (IC50)
Protocol: The compounds of the present invention were examined on the antitumor activity, and the thus obtained results are shown below.
1. Growth prevention against cancer cells
Human uterus cancer-derived cells HeLa S3 were incubated at 37° C. for 24 hours in 5% CO2. A test compound was then brought into contact with the cells for 72 hours. Then, the cells were stained with 0.05% Methylene Blue. The pigment was extracted from the stained cells. The growth inhibition of the cells were determined based on absorbance at 660 nm to calculate 50% growth inhibitory concentration (IC50).

[2] = Chemical reduction with sodium cyanoborohydride; format: physicochemical
Protocol: (§1) In addition, when an in vitro metabolic test using liver homogenate (S9) prepared from human liver was performed with reference to the method described in Arch. […] This product coincided with the reduced product formed by the chemical reduction described above.
(§2) 2,3-(Methylenedioxy)-7-hydroxy-8-methoxy-5,6-propano-benzo[c]phenanthridinium chloride, which is one of the compounds of the present invention, was treated with sodium cyanoborohydride in an aqueous solution at room temperature.
The compound of the present invention (0.1 mg/mL aqueous solution, 0.1 mL) was diluted with methanol (1.0 mL). An aqueous solution of sodium cyanoborohydride (4 mg/mL, 0.02 mL) was added to the solution. The mixture was allowed to stand at room temperature. The reaction was terminated by adding 1% aqueous phosphoric acid (1 mL) thereto. The residual amount of the compound was determined by high performance liquid chromatography. As a control, 2,3-(methylenedioxy)-5-methyl-7-hydroxy-8-methoxy-benzo[c]phenanthridiniumhydrogensulfate was similarly reacted.

female CDF1 mice = experiment: Acute toxicity by intravenous injection; format: in vivo, mouse (female CDF1 mice); conditions: female CDF1 mice of 6 weeks old
Protocol: The acute toxicity was assessed by intravenous injection of 2,3-(methylenedioxy)-7-hydroxy-8-methoxy-5,6-propano-benzo[c]phenanthridinium chloride (Compound No. A-4 of the present invention, (X^- =Cl^-)) to female CDF1 mice of 6 weeks old.

[3] = In vitro metabolic test using liver homogenate (S9); format: in vitro ADME, human
Protocol: as §1, §2

[4] = system: Mouse leukemia cells P388; experiment: Antitumor effect on cancer cells in vivo (P388 leukemia, survival); parameters: species or system mouse (female CDF1 mice); conditions: i.v. single administration; for Survived Days: P388 in female CDF1 mice; for Effect (T/C %): ratio of survival days to median of control group
Protocol: 2. Antitumor effect on cancer cells in vivo
Mouse leukemia cells P388 was intravenously injected to female CDF1 mice of 6 weeks old in a dose of 10^5 cells/mouse. A 5% glucose aqueous solution of 2,3-(methylenedioxy)-7-hydroxy-8-methoxy-5,6-propano-benzo[c]phenanthridinium chloride (Compound No. A-4 of the present invention, (X^- =Cl^-)) was intravenously injected by single administration on the day following the tumor transportation. The antitumor effect was evaluated by comparing the ratio (T/C %) of survival days to the median of survival days in the control group (5 mice).

[5] = aqueous sodium cyanoborohydride

Structure (SMILES)	IC50 [1] [nM]	Amount of Compound remained after Reduction [2, 5]	Acute toxicity (survival) (female CDF1 mice)	Production of metabolite [3]	Survived Days ([4]; 25 mg/kg/day) [days]	Effect (T/C %) ([4]; 25 mg/kg/day) [%]	Survived Days ([4]; 50 mg/kg/day) [days]	Effect (T/C %) ([4]; 50 mg/kg/day) [%]	Survived Days ([4]; 75 mg/kg/day) [days]	Effect (T/C %) ([4]; 75 mg/kg/day) [%]	Survived Days ([4]; 100 mg/kg/day) [days]	Effect (T/C %) ([4]; 100 mg/kg/day) [%]	Production of metabolite ([3]; in vitro, liver homogenate (S9) prepared from human liver)	Disappearance on treatment with sodium cyanoborohydride ([2]; aqueous solution, room temperature)	Amount of Compound remained after Reduction ([2]; sodium cyanoborohydride, room temperature, terminated with phosphoric acid, HPLC)
COc1ccc2c(c1O)c1[n+](c3c4cc5c(cc4ccc23)OCO5)CCCC1 [Compound No. A-7, 2,3-(methylenedioxy)-7-hydroxy-8-methoxy-5,6-butano-benzo[c]phenanthridinium chloride]	5600	100	–	–	–	–	–	–	–	–	–	–	–	–	–
COc1ccc2c(c1O)c1[n+](c3c4cc5c(cc4ccc23)OCO5)CCC1 [Compound No. A-4, 2,3-(methylenedioxy)-7-hydroxy-8-methoxy-5,6-propano-benzo[c]phenanthridinium chloride]	170	50	survived even in a dose of 100 mg/kg, without showing any death	no metabolite was produced	14	167	21	250	> 30	> 357	> 30	> 357	–	–	–
COc1ccc2c(c[n+](C)c3c4cc5c(cc4ccc23)OCO5)c1O [Control, 2,3-(methylenedioxy)-5-methyl-7-hydroxy-8-methoxy-benzo[c]phenanthridiniumhydrogensulfate, reference compound]	–	–	–	–	–	–	–	–	–	–	–	–	production of the metabolite was observed	the phenanthridinium is lost in a few minutes	0
